In ChEMBL document CHEMBL1123136, “Difluorostatine- and difluorostatone-containing peptides as potent and specific renin inhibitors” (J Med Chem, 1985):
Non-standard residues stand in square brackets, D forms with d. Residues, ends and D or L forms follow the SMILES beside them. *: point of attachment. Sta = CC(C)C[C@H](N)[C@@H](O)CC(=O)O; NHCH2(2-pyridyl) = c1ccc(CN*)nc1; Boc = CC(C)(C)OC(=O)*

Experiments:
[1] = biological target: T1, Renin (Homo sapiens, UniProt P00797); experiment: Plasma renin inhibitory activity was evaluated in lyophilized human plasma with 0.1%EDTA; format: cell-free
T1 sequence (P00797 whole entry): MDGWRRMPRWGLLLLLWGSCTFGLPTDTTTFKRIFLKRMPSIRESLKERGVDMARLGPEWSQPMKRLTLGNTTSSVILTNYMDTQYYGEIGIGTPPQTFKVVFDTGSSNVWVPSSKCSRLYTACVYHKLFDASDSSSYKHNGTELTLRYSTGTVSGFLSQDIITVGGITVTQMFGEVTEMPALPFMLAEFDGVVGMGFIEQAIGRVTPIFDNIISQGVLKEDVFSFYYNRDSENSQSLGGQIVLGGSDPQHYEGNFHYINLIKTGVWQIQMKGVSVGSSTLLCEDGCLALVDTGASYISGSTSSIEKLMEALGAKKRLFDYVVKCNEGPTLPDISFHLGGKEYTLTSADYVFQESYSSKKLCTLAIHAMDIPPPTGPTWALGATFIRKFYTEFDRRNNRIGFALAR

[2] = biological target: Pepsin A (Sus scrofa, UniProt P00791); experiment: Inhibitory activity was evaluated against pepsin using porcine pepsin (sigma), porcine hemoglobin (sigma) and 0.02 M KCl-HCl buffer (pH 2)
[3] = biological target: T2, Angiotensin-converting enzyme (Oryctolagus cuniculus, UniProt P12822); experiment: Inhibitory activity was evaluated against Angiotensin I converting enzyme activity in rabbit
T2 sequence (P12822 whole entry): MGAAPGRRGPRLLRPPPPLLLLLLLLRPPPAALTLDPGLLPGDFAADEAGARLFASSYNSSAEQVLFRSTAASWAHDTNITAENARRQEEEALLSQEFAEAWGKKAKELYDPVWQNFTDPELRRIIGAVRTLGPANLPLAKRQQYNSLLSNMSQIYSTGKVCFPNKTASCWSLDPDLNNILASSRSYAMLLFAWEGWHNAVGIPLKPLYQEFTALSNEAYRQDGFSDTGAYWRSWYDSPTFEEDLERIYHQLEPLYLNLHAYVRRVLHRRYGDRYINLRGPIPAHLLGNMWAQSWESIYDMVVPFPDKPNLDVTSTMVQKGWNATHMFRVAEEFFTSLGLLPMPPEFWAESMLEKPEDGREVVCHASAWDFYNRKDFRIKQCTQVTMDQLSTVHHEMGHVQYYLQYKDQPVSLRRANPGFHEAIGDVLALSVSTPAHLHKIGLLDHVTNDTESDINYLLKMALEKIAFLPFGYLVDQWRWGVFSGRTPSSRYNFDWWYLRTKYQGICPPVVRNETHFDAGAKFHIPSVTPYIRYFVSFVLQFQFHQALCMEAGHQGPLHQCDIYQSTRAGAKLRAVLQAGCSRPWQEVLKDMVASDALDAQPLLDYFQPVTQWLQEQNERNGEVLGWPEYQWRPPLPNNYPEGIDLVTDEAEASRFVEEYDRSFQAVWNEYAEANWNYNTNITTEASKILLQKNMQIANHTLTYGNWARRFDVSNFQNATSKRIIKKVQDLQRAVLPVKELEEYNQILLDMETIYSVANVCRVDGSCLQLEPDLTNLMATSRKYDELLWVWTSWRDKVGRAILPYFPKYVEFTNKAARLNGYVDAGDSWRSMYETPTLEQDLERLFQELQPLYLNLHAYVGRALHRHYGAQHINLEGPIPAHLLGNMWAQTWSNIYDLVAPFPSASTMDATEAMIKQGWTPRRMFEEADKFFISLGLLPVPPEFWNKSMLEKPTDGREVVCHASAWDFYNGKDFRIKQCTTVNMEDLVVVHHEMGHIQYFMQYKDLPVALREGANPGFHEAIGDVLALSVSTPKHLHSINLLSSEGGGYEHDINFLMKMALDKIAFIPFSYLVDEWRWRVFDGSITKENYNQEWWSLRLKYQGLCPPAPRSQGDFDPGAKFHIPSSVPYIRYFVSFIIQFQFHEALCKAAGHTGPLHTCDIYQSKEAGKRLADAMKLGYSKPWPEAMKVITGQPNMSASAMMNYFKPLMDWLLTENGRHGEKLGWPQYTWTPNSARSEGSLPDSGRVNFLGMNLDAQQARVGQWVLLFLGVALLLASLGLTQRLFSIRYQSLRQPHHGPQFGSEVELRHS

Sequence of Pepsin A (P00791 whole entry): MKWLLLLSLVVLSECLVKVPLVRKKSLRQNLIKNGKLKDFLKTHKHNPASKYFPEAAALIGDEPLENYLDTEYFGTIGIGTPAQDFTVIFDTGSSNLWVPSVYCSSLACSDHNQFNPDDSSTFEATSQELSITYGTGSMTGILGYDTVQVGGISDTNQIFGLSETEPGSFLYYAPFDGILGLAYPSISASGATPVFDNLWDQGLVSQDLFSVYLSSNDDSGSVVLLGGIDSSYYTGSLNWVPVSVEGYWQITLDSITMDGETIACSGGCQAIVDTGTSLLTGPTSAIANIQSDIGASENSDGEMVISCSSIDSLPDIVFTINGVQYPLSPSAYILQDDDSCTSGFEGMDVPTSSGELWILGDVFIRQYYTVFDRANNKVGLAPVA

Row | Molecule | IC50 [1] [µM] | other results
1 | CC[C@H](C)[C@H](NC(=O)C(F)(F)C(=O)[C@H](CC(C)C)NC(=O)[C@H](Cc1c[nH]cn1)NC(=O)[C@H](Cc1ccccc1)NC(=O)OC(C)(C)C)C(=O)NCc1ccccn1 | 0.00052 | 
2 | CC[C@H](C)[C@H](NC(=O)CC(=O)[C@H](CC(C)C)NC(=O)[C@H](Cc1c[nH]cn1)NC(=O)[C@H](Cc1ccccc1)NC(=O)OC(C)(C)C)C(=O)NCc1ccccn1 | 0.034 | 
3 | CC[C@H](C)[C@H](NC(=O)C(F)(F)[C@H](O)[C@H](CC(C)C)NC(=O)[C@H](Cc1c[nH]cn1)NC(=O)[C@H](Cc1ccccc1)NC(=O)OC(C)(C)C)C(=O)NCc1ccccn1 | 0.012 | 
4 | CC[C@H](C)[C@H](NC(=O)C(F)(F)[C@@H](O)[C@H](CC(C)C)NC(=O)[C@H](Cc1c[nH]cn1)NC(=O)[C@H](Cc1ccccc1)NC(=O)OC(C)(C)C)C(=O)NCc1ccccn1 | 0.73 | 
5 | CC[C@H](C)[C@H](NC(=O)C[C@H](O)[C@H](CC(C)C)NC(=O)[C@H](Cc1c[nH]cn1)NC(=O)[C@H](Cc1ccccc1)NC(=O)OC(C)(C)C)C(=O)NCc1ccccn1 (Boc-FH[Sta]I-{NHCH2(2-pyridyl)}) | 0.0017 | 
6 | CC(C)CC(=O)N[C@H](C(=O)N[C@H](C(=O)N[C@@H](CC(C)C)[C@@H](O)CC(=O)N[C@@H](C)C(=O)N[C@@H](CC(C)C)[C@@H](O)CC(=O)O)C(C)C)C(C)C [PEPSTATIN] |  | IC50 [2]: 0.01 µM
7 | H-PHPFHFFVYK-OH [RIP] |  | IC50 [3]: 12 µM
